From patent US11046716B2, “Beta-lactamase inhibitors” (priority 2015, dated 2021)

What was measured:
SHV-5 = biological target: T1, SHV-5 (Klebsiella pneumoniae, UniProt P0A3M1); test: β-lactamase enzyme inhibition assay, SHV-5 (cefotaxime substrate); type: biochemical
T1 construct: made in house; host or cells: E. coli BL21(DE3)
Method in brief: (§1)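 Read-out is the rate of β-lactam ring hydrolysis monitored by absorbance: 300 nm for imipenem with KPC-2 and 260 nm for cefotaxime with SHV-5. Recombinant native enzymes were first incubated with compound at 37 °C for 15 min. The IC50 is the inhibitor concentration that halves the initial hydrolysis rate.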

KPC-2 = biological target: T2, KPC-2 (Klebsiella pneumoniae, UniProt Q9F663); test: β-lactamase enzyme inhibition assay, KPC-2 (imipenem substrate); type: biochemical; details: Class A; imipenem substrate, 300 nm; read-out: KPC-2
T2 construct: made in house; host or cells: E. coli BL21(DE3)
Method in brief: as §1

VIM-2 = biological target: T3, VIM-2 (Escherichia coli, UniProt Q5U7L7); test: β-lactamase enzyme inhibition assay, VIM-2 (nitrocefin substrate); type: biochemical; details: Class B; nitrocefin substrate, 486 nm; read-out: VIM-2
T3 construct: made in house; host or cells: E. coli BL21(DE3)
Method in brief: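 Nitrocefin hydrolysis, read at 486 nm over 10 min, served as the measure of VIM-2 activity. The enzyme had been incubated with compound for 15 min at 37 °C before 100 μM substrate was added, and IC50 values were fitted from percent inhibition of the initial rate.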

AmpC = biological target: T4, AmpC (Enterobacter cloacae, UniProt P05364); test: β-lactamase enzyme inhibition assay, p99 AmpC (nitrocefin substrate); type: biochemical
T4 construct: made in house; host or cells: E. coli BL21(DE3)
Method in brief: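 Read-out is the rate of β-lactam ring hydrolysis monitored by absorbance. Recombinant native enzymes were first incubated with compound at 37 °C for 15 min. The IC50 is the inhibitor concentration that halves the initial hydrolysis rate.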

OXA-48 = OXA-48 (UniProt Q6XEC0); test: β-lactamase enzyme inhibition assay, Class D oxacillinase; type: biochemical; details: read-out: OXA-48
[1] = system: E. coli expressing the Class A Extended Spectrum Beta-Lactamase (ESBL) CTX-M-15; test: Broth microdilution MIC assay with ceftazidime, E. coli CTX-M-15; type: cell-based; details: Fixed CAZ (ceftazidime) 4 μg/mL; E. coli ESBL4 CTX-M-15
Method in brief: (§2)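 Visual MIC readout of the test compound after 16-20 hours at 37° C, measured in the presence of a constant 4 μg/ml β-lactam. Compound concentrations spanned 16 to 0.125 μg/mL in 2-fold steps in cation-adjusted Mueller Hinton broth.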

[2] = system: E. cloacae expressing the Class C P99; test: Broth microdilution MIC assay with ceftazidime, E. cloacae P99; type: cell-based; details: Fixed CAZ (ceftazidime) 4 μg/mL; E. cl. 144200 p99 AmpC
Method in brief: as §2

[3] = system: K. pneumoniae expressing the Class A carbapenemase KPC-2; test: Broth microdilution MIC assay with meropenem, K. pneumoniae KPC-2; type: cell-based; details: Fixed Mero (meropenem) 4 μg/mL; K. p. 156319 KPC-3
Method in brief: as §2

[4] = system: P. aeruginosa expressing the Class B carbapenemase VIM-2; test: Broth microdilution MIC assay with meropenem, P. aeruginosa VIM-2; type: cell-based; details: Fixed Mero (meropenem) 4 μg/mL; P. aerug. 2775 VIM-2
Method in brief: as §2

[5] = system: K. pneumoniae expressing the class A carbapenemase KPC-2 and the class B carbapenemase VIM-4; test: Broth microdilution MIC assay with meropenem, K. pneumoniae KPC-2 and VIM-4; type: cell-based; details: Fixed Mero (meropenem) 4 μg/mL; K. p. A-1797 KPC-2 VIM-4
Method in brief: as §2

[6] = system: K. pneumoniae producing the Class D carbapenemase OXA-48; test: Broth microdilution MIC assay with meropenem, K. pneumoniae OXA-48; type: cell-based; details: Fixed Mero (meropenem) 4 μg/mL; K. p. 11978 OXA-48
Method in brief: as §2

T2 sequence (Q9F663 25-293, looked up): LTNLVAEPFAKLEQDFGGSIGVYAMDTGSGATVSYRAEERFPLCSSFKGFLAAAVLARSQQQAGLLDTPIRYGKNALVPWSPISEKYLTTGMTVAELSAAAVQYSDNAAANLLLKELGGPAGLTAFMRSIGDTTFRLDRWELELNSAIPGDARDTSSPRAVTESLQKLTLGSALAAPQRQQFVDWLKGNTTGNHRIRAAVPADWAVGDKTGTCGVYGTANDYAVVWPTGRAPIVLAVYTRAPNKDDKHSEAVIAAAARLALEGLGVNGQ
T1 sequence (P0A3M1 22-286): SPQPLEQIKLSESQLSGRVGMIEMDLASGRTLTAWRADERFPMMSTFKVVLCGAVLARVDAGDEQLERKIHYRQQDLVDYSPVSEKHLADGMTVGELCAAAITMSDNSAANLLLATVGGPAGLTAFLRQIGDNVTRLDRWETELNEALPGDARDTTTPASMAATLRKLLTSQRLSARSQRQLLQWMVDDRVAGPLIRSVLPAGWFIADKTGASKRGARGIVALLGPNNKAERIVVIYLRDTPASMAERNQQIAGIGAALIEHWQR
T4 sequence (P05364 21-381): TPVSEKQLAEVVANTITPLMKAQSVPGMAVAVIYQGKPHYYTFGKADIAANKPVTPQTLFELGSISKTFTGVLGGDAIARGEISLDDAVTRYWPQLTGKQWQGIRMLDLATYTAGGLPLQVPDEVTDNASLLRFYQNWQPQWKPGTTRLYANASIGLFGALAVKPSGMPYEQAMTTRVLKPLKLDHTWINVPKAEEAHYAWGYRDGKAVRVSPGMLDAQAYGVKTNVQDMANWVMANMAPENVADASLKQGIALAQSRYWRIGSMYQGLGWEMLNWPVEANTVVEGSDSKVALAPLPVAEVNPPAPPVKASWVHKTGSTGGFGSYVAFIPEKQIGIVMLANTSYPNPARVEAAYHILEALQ

## NCCn1cc(Cn2nnc(CC(=O)N[C@H]3Cc4cccc(C(=O)O)c4OB3O)n2)nn1 [Example 124, (R)-3-(2-(2-((1-(2-aminoethyl)-1H-1,2,3-triazol-4-yl)methyl)-2H-tetrazol-5-yl)acetamido)-2-hydroxy-3,4-dihydro-2H-benzo[e][1,2]oxaborinine-8-carboxylic acid]
SHV-5
  IC50: < 100 nM
KPC-2
  IC50: < 100 nM
VIM-2
  IC50: 1000 to 10000 nM
AmpC
  IC50: < 100 nM
OXA-48
  IC50: 100 to 1000 nM
[1]
  MIC (μg/mL) of Exemplary Compounds in presence of fixed β-lactams: E. coli ESBL4 CTX-M-15: C (C represents an MIC of <1 μg/mL)
[2]
  MIC (μg/mL) of Exemplary Compounds in presence of fixed β-lactams: E. cl. 144200 p99 AmpC: C (C represents an MIC of <1 μg/mL)
[3]
  MIC (μg/mL) of Exemplary Compounds in presence of fixed β-lactams: K. p. 156319 KPC-3: B (B represents an MIC between 1 and 16 μg/mL inclusive)
[4]
  MIC (μg/mL) of Exemplary Compounds in presence of fixed β-lactams: P. aerug. 2775 VIM-2: A (A represents an MIC>16 μg/mL)
[5]
  MIC (μg/mL) of Exemplary Compounds in presence of fixed β-lactams: K. p. A-1797 KPC-2 VIM-4: B (B represents an MIC between 1 and 16 μg/mL inclusive)
[6]
  MIC (μg/mL) of Exemplary Compounds in presence of fixed β-lactams: K. p. 11978 OXA-48: B (B represents an MIC between 1 and 16 μg/mL inclusive)

## NCc1ncn(CC(=O)N[C@H]2Cc3cccc(C(=O)O)c3OB2O)n1 [Example 125]
SHV-5
  IC50: 100 to 1000 nM
KPC-2
  IC50: < 100 nM
VIM-2
  IC50: < 100 nM
AmpC
  IC50: < 100 nM
OXA-48
  IC50: 1000 to 10000 nM
[1]
  MIC (μg/mL) of Exemplary Compounds in presence of fixed β-lactams: E. coli ESBL4 CTX-M-15: C (C represents an MIC of <1 μg/mL)
[2]
  MIC (μg/mL) of Exemplary Compounds in presence of fixed β-lactams: E. cl. 144200 p99 AmpC: C (C represents an MIC of <1 μg/mL)
[3]
  MIC (μg/mL) of Exemplary Compounds in presence of fixed β-lactams: K. p. 156319 KPC-3: C (C represents an MIC of <1 μg/mL)
[4]
  MIC (μg/mL) of Exemplary Compounds in presence of fixed β-lactams: P. aerug. 2775 VIM-2: C (C represents an MIC of <1 μg/mL)
[5]
  MIC (μg/mL) of Exemplary Compounds in presence of fixed β-lactams: K. p. A-1797 KPC-2 VIM-4: C (C represents an MIC of <1 μg/mL)
[6]
  MIC (μg/mL) of Exemplary Compounds in presence of fixed β-lactams: K. p. 11978 OXA-48: B (B represents an MIC between 1 and 16 μg/mL inclusive)
